Patent US10028999B2, “PAR-1 based therapeutic conjugates and uses thereof” (TEL HASHOMER MEDICAL RESEARCH INFRASTRUCTURE AND SERVICES …, priority 2014, dated 2018)
Peptide text beside a SMILES is read from it. * marks the point of attachment. Tos = Cc1ccc(S(=O)(=O)*)cc1; CH2Cl = ClC*

Key:
[1] = test system: C6 glioma cells; test: Thrombin-like activity in C6 glioma cell line; format: cell-based; details: four hours after treatment
[2] = test system: EAN rats (experimental autoimmune neuritis); test: Electrophysiological tests in EAN rats treated with thrombin inhibitors; format: in vivo, rat
Method: (§1) Electrophysiological tests of the sciatic nerves were performed on day 32 PI (post-immunization/induction) in EAN model (FIGS. 3A-C) and 8 weeks after STZ induction (FIG. 4A-C). Rats were anesthetized with Phenobarbital (IP, 24 mg/kg). Two pairs of monopolar needle electrodes were used to stimulate the tail nerves. Stimulating cathodes were inserted to a depth of 4-5 mm at the base of the tail and 4 cm distally. An anode at each location was inserted into the skin (4-5 mm depth) 1 cm proximal to the cathode. A ground electrode was placed between the distal stimulating electrode and the active recording electrode. Electromyography (EMG) recordings of responses of the tail muscles to proximal and distal stimuli, made by a pair of ring electrodes coated with electrode jelly and placed 1 cm distally to the distal stimulating electrode, were collected. The tail skin was wiped with alcohol prior to placing the electrodes. […] Both proximal and distal latencies were measured using time intervals from the stimulus artifact to the first deflection from baseline. To calculate the motor nerve conduction velocity (MNCV), the distance between stimulating cathodes was divided by the latency difference. Amplitudes of the compound muscle action potential (CMAP) from both proximal and distal stimulations were measured from the negative to the positive peaks. The reduction of the proximal CMAP compared with that of the distal CMAP was calculated by the equation: [(distal CMAP-proximal CMAP)/distalCMAP×100] and was defined as the R ratio. Temperature differences were minimized by conducting the study as soon as the anesthesia had taken effect and by warming the tail with a heating lamp.
(§2) FIGS. 3 and 4 each include 3 graphs summarizing the results from electrophysiological tests of treated rats, as follows: distal latency (3A, 4A) referring to the time, in milliseconds, between distal stimulation to recording; conduction velocity (3B, 4B) referring to the distance over time, in meters/seconds; and amplitude (3C, 4C) referring to the size of the response as measured in millivolts.

[3] = test system: STZ-induced diabetic rats; test: Electrophysiological tests in STZ-induced diabetic rats treated with thrombin inhibitors; format: in vivo, rat; details: STZ rats
Method: as §1, §2

[4] = target: Protein C (Homo sapiens, UniProt P04070); test: Protein C activity test; format: biochemical; details: for aPC: without conjugate 109
Sequence of Protein C (P04070 212-461 limits assumed): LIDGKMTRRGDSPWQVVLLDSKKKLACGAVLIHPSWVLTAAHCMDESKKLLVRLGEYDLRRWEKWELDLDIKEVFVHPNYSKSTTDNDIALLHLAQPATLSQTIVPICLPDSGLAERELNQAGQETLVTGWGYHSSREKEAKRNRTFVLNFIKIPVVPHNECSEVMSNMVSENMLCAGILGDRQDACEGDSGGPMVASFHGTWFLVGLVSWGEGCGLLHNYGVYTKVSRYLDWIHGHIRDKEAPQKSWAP
Sequence of Protein C (P04070 43-197 partner limits assumed): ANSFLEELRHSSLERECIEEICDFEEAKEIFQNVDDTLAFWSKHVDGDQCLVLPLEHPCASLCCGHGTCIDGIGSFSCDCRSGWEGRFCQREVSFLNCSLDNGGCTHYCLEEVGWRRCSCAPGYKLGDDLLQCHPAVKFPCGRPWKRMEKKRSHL

[5] = test system: thrombin; test: Thrombin time test; format: biochemical; details: for TT: without conjugate 13.4
[6] = test system: CNS-1 glioma cells; test: Proliferation (XTT) of CNS-1 glioma cells; format: cell-based, rat; details: CNS-1 cells; for inhibition of cell proliferation: XTT, 48 hours
Method: (§3) Several peptide moieties (Table 1) according to the present invention were synthesized. Proliferation was measured, by means of XTT, in C6 and CNS-1 glioma cell-lines (FIGS. 8A and 8B, respectively). In C6 cells, proliferation was measured before (black bar) and after cells were treated with the PAR-1 antagonist SCH79797 at various doses ranging from 10 nM to 10 μM (grey bars; FIG. 8A).
In another set of experiments, CNS-1 glioma cell-line was treated with increased doses of TLCK (125 nM to 14 mM), for 48 hours (FIG. 9; grey bars). Proliferation was measured by means of XTT in comparison to non-treated cells (control; black bar).
Initially, CNS-1 glioma cells were treated with increased concentrations of two peptide conjugates: a short conjugate of the formula tosyl-DPR-CK (comprising 3 amino acids, 3AA) or a long conjugate of the formula tosyl-NATLDPR-CK (comprising 7 amino acids, 7AA; SEQ ID NO: 4) in concentrations of 100 pM, 1 nM and 10 nM, for 48 hours (FIG. 10). FIG. 10 provides the results of an XTT assay used for assessing cell proliferation.
The effect of the peptide conjugate alone, or in combination with PAR-1 antagonist, SCH79797, on cell proliferation was determined in comparison to untreated cells or cells treated with PAR-1 antagonist (FIG. 13).

[7] = test system: CNS-1 glioma cells
Method: The thrombin-like activity of CNS-1 cells was initially measured in control cells and in cells treated with (i) the short peptide conjugate (tosyl-DPR-CK, corresponding to a conjugate that includes the peptide termed 3AA) or (ii) the long conjugate (tosyl-NATLDPR-CK, corresponding to a conjugate that includes the peptide termed 7AA (SEQ ID No. 4)) at high ([…]) and low (100 nM) concentrations (FIG. 16).

[8] = test system: blood coagulation (prothrombin time); test: Prothrombin time test; format: biochemical; details: for PT: without conjugate 11.5
[9] = test system: blood coagulation
[10] = test system: Factor Xa; test: Factor Xa activity test; format: biochemical; details: for Fxa: without conjugate 0.11
[11] = test system: blood coagulation (aPTT); test: Activated partial thromboplastin time test; format: biochemical; details: for aPTT: without conjugate 30.5
[12] = in vivo; details: ip, 2 micromolar, in 100 ul
Method: The concentrations of the peptide conjugates in the plasma of animals treated therewith was evaluated by a unique method that was based on the ability of the peptide conjugates to inhibit thrombin activity. […] The essay initiated by obtaining blood samples from animals which received the peptide conjugates (100 microliter containing 2 micromolar, i.p.). The blood samples, after being maintained in citrate buffered sample tubes, were subjected to centrifugation for plasma separation. Samples were then filtered through a membrane with a 10 kD molecular weight cutoff which excluded all blood coagulation factors (by addition of calcium to neutralize the anticoagulation effect of the citrate buffer). Coagulation factor-free plasma samples were then applied to the thrombin activity assay.
The resulting thrombin activities in each plasma sample either diluted (×10) or as is were given in arbitrary units (FIGS. 18-18D, diagonal shading and dotted bars, respectively). However, the actual concentration were deduced by comparing the activities to calibrated activities generated with known concentrations of the conjugate peptides. The calibration data included the following thrombin activities: activity in a sample of thrombin in the absence of plasma and conjugates (black bars, FIGS. 18A-18D); and activity in four samples of thrombin and known concentrations of the peptide conjugates (10 nM, 100 nM, 1 micromolar and 10 micromolar; bars 2nd to 5th from right in FIGS. 18A-18D).

[13] = test system: C6 glioma cells; test: Proliferation (XTT) of C6 glioma cells; format: cell-based; details: 10 nM to 10 μM
Method: as §3

[14] = 100 μM, most potent (1) to least potent (5)

N=C(N)c1ccc(CC(NC(=O)CNS(=O)(=O)c2ccc3ccccc3c2)C(=O)N2CCCCC2)cc1 (racemic) [NAPAP, Na-(2-naphthyl-sulphonyl-glycyl)-DL-p-amidinophenylalanyl-piperidine]
thrombin-like activity [1]: inhibited | conduction velocity ([2]; daily treatment for 2 weeks, TLCK 4.4 mg/kg, NAPAP 120 μM/kg, untreated EAN 23.6±1.2): 36.05±3.57 m/sec | proximal amplitude ([2]; untreated EAN 0.76±0.33, non-significant): 0.83±0.4 millivolts | latency ([2]; untreated EAN 1.43±0.023, control 0.54±0.03): 1.32 ± 0.33 ms | conduction velocity ([3]; daily treatment for 2 weeks, TLCK 4.4 mg/kg, NAPAP 120 μM/kg, untreated STZ 28.5±2.8): 40.1±2.7 m/sec | proximal amplitude ([3]; untreated STZ 0.48±0.13, insignificant): 1.68±0.64 millivolts | latency ([3]; untreated STZ 1.93±0.139, control 1.29±0.057): 1.676 ± 0.132 ms

Cc1ccc(S(=O)(=O)N[C@@H](CC(=O)O)C(=O)N2CCC[C@H]2C(=O)N[C@@H](CCCNC(=N)N)C(=O)CCl)cc1 [3AA, tosyl-DPR-CK] (Tos-Asp-Pro-Arg-CH2Cl)
aPC ([4]; 1 μM): 107 | Potency score in Protein C activity test [4, 14]: 1 | aPC ([4]; 100 μM): FAILED | TT ([5]; 10 nM): 14.1 s | Potency score in TT test ([5]; 1 μM, most potent (1) to least potent (5)): 1 | TT ([5]; 1 μM): > 80 s | TT ([5]; 100 μM): > 80 s | inhibition of cell proliferation ([6]; 1 nM): significant inhibition of cell proliferation | inhibition of cell proliferation ([6]; 10 nM): higher inhibition | IC50 [7]: 7 pM | PT ([8]; 10 nM): 11.5 s | PT ([8]; 1 μM): 12.3 s | Potency score in PT test [8, 14]: 1 | PT ([8]; 100 μM): FAILED | effect on coagulation, overall [9]: significantly more deleterious effects on coagulation | Fxa ([10]; 1 μM): 0.21 | Potency score in Factor Xa activity test [10, 14]: 1 | Fxa ([10]; 100 μM): FAILED | aPTT ([11]; 10 nM): 30 s | aPTT ([11]; 1 μM): 38.1 s | Potency score in aPTT test [11, 14]: 1 | aPTT ([11]; 100 μM): 150 s | level at time molar [12]: ~1000 nM

CC(C)c1ccc(Cn2ccc3c4c(N)nc(NC5CC5)nc4ccc32)cc1.Cl.Cl [SCH79797, N3-Cyclopropyl-7-[[4-(1-methylethyl)phenyl]methyl]-7H-pyrrolo[3,2-f]quinazoline-1,3-diamine dihydrochloride, reference compound]
inhibition at 1 µM ([6]; Rattus norvegicus, Glioma cell, 1 μM, alone): 25% | proliferation [13]: inhibited proliferation in a dose-dependent manner
